EC30 data for 24 compounds are collected here from US10758534B2 (Vertex Pharmaceuticals Incorporated, priority 2014, dated 2020).

SMILES strings stand for the structures.

T1 sequence (P13569 with tags, fused parts or gaps DEL508-508): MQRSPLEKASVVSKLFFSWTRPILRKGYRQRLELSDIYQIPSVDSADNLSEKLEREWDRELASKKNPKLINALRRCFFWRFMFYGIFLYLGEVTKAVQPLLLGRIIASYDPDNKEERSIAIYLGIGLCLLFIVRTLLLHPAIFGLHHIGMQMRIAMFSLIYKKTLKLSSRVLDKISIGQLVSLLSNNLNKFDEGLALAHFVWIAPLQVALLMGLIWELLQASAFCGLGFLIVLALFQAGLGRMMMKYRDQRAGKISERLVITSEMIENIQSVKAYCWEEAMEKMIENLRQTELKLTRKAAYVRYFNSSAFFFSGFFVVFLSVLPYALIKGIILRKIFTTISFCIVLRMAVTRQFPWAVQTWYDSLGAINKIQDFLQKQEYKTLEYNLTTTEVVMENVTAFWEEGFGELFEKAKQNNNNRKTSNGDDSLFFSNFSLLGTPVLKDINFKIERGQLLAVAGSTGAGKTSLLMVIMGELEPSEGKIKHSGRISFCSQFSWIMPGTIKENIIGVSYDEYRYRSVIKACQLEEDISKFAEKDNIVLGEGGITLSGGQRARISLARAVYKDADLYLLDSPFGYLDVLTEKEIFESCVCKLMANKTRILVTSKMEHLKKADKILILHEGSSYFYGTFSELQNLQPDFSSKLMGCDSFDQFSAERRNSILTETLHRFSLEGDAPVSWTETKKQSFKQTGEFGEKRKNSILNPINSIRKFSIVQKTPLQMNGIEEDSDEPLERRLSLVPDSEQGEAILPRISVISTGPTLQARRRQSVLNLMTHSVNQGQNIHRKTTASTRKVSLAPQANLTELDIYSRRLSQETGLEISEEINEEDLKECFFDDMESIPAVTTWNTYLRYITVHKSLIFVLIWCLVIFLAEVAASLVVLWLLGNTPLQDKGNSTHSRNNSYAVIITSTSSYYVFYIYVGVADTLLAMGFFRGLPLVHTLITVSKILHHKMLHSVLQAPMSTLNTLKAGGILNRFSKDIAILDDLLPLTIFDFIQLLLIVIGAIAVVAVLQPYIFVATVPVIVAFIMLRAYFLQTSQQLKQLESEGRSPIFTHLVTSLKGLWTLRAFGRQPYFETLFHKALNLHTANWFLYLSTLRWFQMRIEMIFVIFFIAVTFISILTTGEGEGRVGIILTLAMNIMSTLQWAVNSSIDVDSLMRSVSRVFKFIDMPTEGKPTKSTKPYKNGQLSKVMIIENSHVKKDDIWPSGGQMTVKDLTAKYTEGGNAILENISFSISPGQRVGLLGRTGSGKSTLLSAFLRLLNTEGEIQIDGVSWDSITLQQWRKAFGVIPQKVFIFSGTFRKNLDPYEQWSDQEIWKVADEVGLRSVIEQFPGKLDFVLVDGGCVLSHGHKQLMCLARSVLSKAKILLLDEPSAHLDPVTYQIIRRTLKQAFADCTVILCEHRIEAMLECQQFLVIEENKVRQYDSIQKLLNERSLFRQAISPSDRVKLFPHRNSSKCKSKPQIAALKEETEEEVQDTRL

The assay addresses T1, F508del (Homo sapiens, UniProt P13569, DEL508-508).
T1 construct: expressed in transfected cells
In words: Protocol 1: membrane potential optical assay (FLIPR III, voltage sensing dye), identification of potentiator compounds. The class given is cell-based. The following applies: Table 3, compounds of Table 1. The text has this: Membrane Potential Optical Methods for Assaying F508del Modulation Properties of Compounds
The assay utilizes fluorescent voltage sensing dyes to measure changes in membrane potential using a fluorescent plate reader (e.g., FLIPR III, Molecular Devices, Inc.) as a readout for increase in functional F508del in NIH 3T3 cells. The driving force for the response is the creation of a chloride ion gradient in conjunction with channel activation by a single liquid addition step after the cells have previously been treated with compounds and subsequently loaded with a voltage sensing dye.
Identification of Potentiator Compounds
To identify potentiators of F508del, a double-addition HTS assay format was developed. This HTS assay utilizes fluorescent voltage sensing dyes to measure changes in membrane potential on the FLIPR III as a measurement for increase in gating (conductance) of F508del in temperature-corrected F508del NIH 3T3 cells. The driving force for the response is a Cl^− ion gradient in conjunction with channel activation with forskolin in a single liquid addition step using a fluorescent plate reader such as FLIPR III after the cells have previously been treated with potentiator compounds (or DMSO vehicle control) and subsequently loaded with a redistribution dye.
Bath Solution #1: (in mM) NaCl 160, KCl 4.5, CaCl2 2, MgCl2 1, HEPES 10, pH 7.4 with NaOH.
Chloride-free bath solution: Chloride salts in Bath Solution #1 (above) are substituted with gluconate salts.
NIH3T3 mouse fibroblasts stably expressing F508del are used for optical measurements of membrane potential. The cells are maintained at 37° C. in 5% CO2 and 90% humidity in Dulbecco's modified Eagle's medium supplemented with 2 mM glutamine, 10% fetal bovine serum, 1×NEAA, β-ME, 1× pen/strep, and 25 mM HEPES in 175 cm^2 culture flasks. For all optical assays, the cells were seeded at ˜20,000/well in 384-well matrigel-coated plates and cultured for 2 hrs at 37° C. before culturing at 27° C. for 24 hrs. for the potentiator assay. For the correction assays, the cells are cultured at 27° C. or 37° C. with and without compounds for 16-24 hours.
As for `CC(C)COc1cc(F)cc(-c2ccc(C(=O)NS(=O)(=O)c3cccc(N)n3)c(N3CC(C(F)(F)F)CCC3C)n2)c1` (stereo not drawn) [Compound 1835, N-[(6-amino-2-pyridyl)sulfonyl]-6-(3-fluoro-5-isobutoxy-phenyl)-2-[2-methyl-5-(trifluoromethyl)-1-piperidyl]pyridine-3-carboxamide], the EC30 result is listed as “+++ (“+++” means <3 uM)”. Take `CC1CN(c2ncccc2C(=O)NS(=O)(=O)c2cccc(N3CCC(c4ccccc4)CC3)n2)C(C)(C)C1` (stereo not drawn) [Compound 1987, N—[[6-(4-phenyl-1-piperidyl)-2-pyridyl]sulfonyl]-2-(2,2,4-trimethylpyrrolidin-1-yl)pyridine-3-carboxamide]: the EC30 entry is recorded as “+++ (“+++” means <3 uM)”. For `COc1cccc(S(=O)(=O)NC(=O)c2ccc(-c3cc(F)cc(OCC(C)C)c3)nc2N2C[C@@H](C)CC2(C)C)n1` [Compound 1483, 6-(3-fluoro-5-isobutoxy-phenyl)-N-[(6-methoxy-2-pyridyl)sulfonyl]-2-[(4S)-2,2,4-trimethylpyrrolidin-1-yl]pyridine-3-carboxamide], the EC30 entry is reported as “+++ (“+++” means <3 uM)”. Consider `CC(C)COc1cc(F)cc(-c2ccc(C(=O)NS(=O)(=O)c3ccn[nH]3)c(N3CCC[C@@H]3c3ccccc3)n2)c1` [Compound 1060, 6-(3-fluoro-5-isobutoxy-phenyl)-2-[(2R)-2-phenylpyrrolidin-1-yl]-N-(1H-pyrazol-5-ylsulfonyl)pyridine-3-carboxamide], for which the EC30 result is on record as “+++ (“+++” means <3 uM)”. On to `CC(C)c1cccc(-c2ccc(C(=O)NS(=O)(=O)c3cccnc3N)c(N3C[C@@H](C)CC3(C)C)n2)c1` [Compound 1991, N-[(2-amino-3-pyridyl)sulfonyl]-6-(3-isopropylphenyl)-2-[(4S)-2,2,4-trimethylpyrrolidin-1-yl]pyridine-3-carboxamide], for which the EC30 result is given as “+++ (“+++” means <3 uM)”. For the compound `CC(C)COc1cc(F)cc(-c2ccc(C(=O)NS(=O)(=O)c3cccc(N)n3)c(N3C[C@@H](F)C[C@H]3C)n2)c1` [Compound 1362, N-[(6-amino-2-pyridyl)sulfonyl]-6-(3-fluoro-5-isobutoxy-phenyl)-2-[(2R,4S)-4-fluoro-2-methyl-pyrrolidin-1-yl]pyridine-3-carboxamide], the EC30 entry is recorded as “+++ (“+++” means <3 uM)”. Next, `Cc1cc(C)c(Oc2nc(-c3cc(F)ccc3F)ccc2C(=O)NS(=O)(=O)c2cccc(N)n2)c(C)c1` [Compound 803, N-[(6-amino-2-pyridyl)sulfonyl]-6-(2,5-difluorophenyl)-2-(2,4,6-trimethylphenoxy)pyridine-3-carboxamide]: “+++ (“+++” means <3 uM)”; `Cc1cc(C)c(Oc2nc(-c3cc(F)cc(OC(C)C)c3)ccc2C(=O)NS(=O)(=O)c2cccc(N)n2)c(C)c1` [Compound 1138, N-[(6-amino-2-pyridyl)sulfonyl]-6-(3-fluoro-5-isopropoxy-phenyl)-2-(2,4,6-trimethylphenoxy)pyridine-3-carboxamide]: “+++ (“+++” means <3 uM)”.

As to `Cc1cc(C)c(CN2Cc3ccccc3C2(C)C(=O)NS(=O)(=O)c2cccc(N)n2)c(C)c1` (stereo not drawn) [Compound 895, N-[(6-amino-2-pyridyl)sulfonyl]-1-methyl-2-[(2,4,6-trimethylphenyl)methyl]isoindoline-1-carboxamide], the EC30 entry is reported as “+++ (“+++” means <3 uM)”. With `COc1cc(-c2cc(F)cc(OCC(C)C)c2)nc(N2[C@H](C)CC[C@@H]2C)c1C(=O)NS(=O)(=O)c1cccc(N)n1` [Compound 1254, N-[(6-amino-2-pyridyl)sulfonyl]-2-[(2S,5R)-2,5-dimethylpyrrolidin-1-yl]-6-(3-fluoro-5-isobutoxy-phenyl)-4-methoxy-pyridine-3-carboxamide], the EC30 result was “+++ (“+++” means <3 uM)”. On to `Cc1cc(C)c(CN2C[C@H](c3ccccc3)C[C@H]2C(=O)NS(=O)(=O)c2cccc(N)n2)c(C)c1` [Compound 870, (2S,4S)—N-[(6-amino-2-pyridyl)sulfonyl]-4-phenyl-1-[(2,4,6-trimethylphenyl)methyl]pyrrolidine-2-carboxamide], for which the EC30 result was “++ (“++” means between 3 uM and 10 uM)”.

With `Cc1cc(C)c(Oc2nc(C3=CC4CCC3(C)C4(C)C)ccc2C(=O)NS(=O)(=O)c2cccc(N)n2)c(C)c1` (stereo not drawn) [Compound 1410, N-[(6-amino-2-pyridyl)sulfonyl]-6-(4,7,7-trimethyl-3-bicyclo[2.2.1]hept-2-enyl)-2-(2,4,6-trimethylphenoxy)pyridine-3-carboxamide], the EC30 entry is “+++ (“+++” means <3 uM)”. In the case of `Cc1cc(C)cc(-c2ccc(C(=O)NS(=O)(=O)N3CC[C@H](N)C3)c(N3C[C@@H](C)CC3(C)C)n2)c1` [Compound 1839, N-[(3S)-3-aminopyrrolidin-1-yl]sulfonyl-6-(3,5-dimethylphenyl)-2-[(4S)-2,2,4-trimethylpyrrolidin-1-yl]pyridine-3-carboxamide], the EC30 result was “+++ (“+++” means <3 uM)”. With `Cc1cc(C)c(Oc2nc(-c3cccc(F)c3F)ccc2C(=O)NS(=O)(=O)c2cccc(N)n2)c(C)c1` [Compound 1244, N-[(6-amino-2-pyridyl)sulfonyl]-6-(2,3-difluorophenyl)-2-(2,4,6-trimethylphenoxy)pyridine-3-carboxamide], the EC30 result is listed as “+++ (“+++” means <3 uM)”. Take `Cc1cc(OCC(C)C)cc(-c2ccc(C(=O)NS(=O)(=O)c3cccc(N)n3)c(N3C[C@@H](C)CC3(C)C)n2)c1` [Compound 1646, N-[(6-amino-2-pyridyl)sulfonyl]-6-(3-isobutoxy-5-methyl-phenyl)-2-[(4 S)-2,2,4-trimethylpyrrolidin-1-yl]pyridine-3-carboxamide]: the EC30 result is reported as “+++ (“+++” means <3 uM)”. Turning to `CC#Cc1ccc(C(=O)NS(=O)(=O)c2cccc(N)n2)c(Oc2c(C)cc(C)cc2C)n1` [Compound 1172, N-[(6-amino-2-pyridyl)sulfonyl]-6-prop-1-ynyl-2-(2,4,6-trimethylphenoxy)pyridine-3-carboxamide], the EC30 result was “++ (“++” means between 3 uM and 10 uM)”. Turning to `C[C@@H]1CC[C@H](C)N1c1nc(-c2ccccc2)ccc1C(=O)NS(=O)(=O)c1cccc(N)n1` [Compound 805, N-[(6-amino-2-pyridyl)sulfonyl]-2-[(2S,5R)-2,5-dimethylpyrrolidin-1-yl]-6-phenyl-pyridine-3-carboxamide], the EC30 result is reported as “+++ (“+++” means <3 uM)”.

In the case of `CCOc1ccc(-c2ccc(C(=O)NS(=O)(=O)c3nccnc3N)c(-c3ccc(C)cc3)n2)cc1` [Compound 819, N-(3-aminopyrazin-2-yl)sulfonyl-6-(4-ethoxyphenyl)-2-(p-tolyl)pyridine-3-carboxamide], the EC30 result is “+ (“+” means greater than 10 uM)”. In the case of `CC(C)COc1ccc(-c2ccc(C(=O)NS(=O)(=O)c3ccn[nH]3)c(N3[C@H](C)CC[C@@H]3C)n2)cc1` [Compound 1335, 2-[(2S,5R)-2,5-dimethylpyrrolidin-1-yl]-6-(4-isobutoxyphenyl)-N-(1H-pyrazol-5-ylsulfonyl)pyridine-3-carboxamide] it was “+++ (“+++” means <3 uM)”.

`CC(C)COc1cc(F)cc(-c2ccc(C(=O)NS(=O)(=O)c3cccc(N)n3)c(N3CCC[C@H]3C(F)(F)F)n2)c1` [Compound 1304, N-[(6-amino-2-pyridyl)sulfonyl]-6-(3-fluoro-5-isobutoxy-phenyl)-2-[(2S)-2-(trifluoromethyl)pyrrolidin-1-yl]pyridine-3-carboxamide]: the EC30 entry is listed as “+++ (“+++” means <3 uM)”. On to `CC1CN(c2nc(-c3ccc(OC(C)C)nc3)ccc2C(=O)NS(=O)(=O)c2cccc(N)n2)C(C)(C)C1` (stereo not drawn) [Compound 1247, N-[(6-amino-2-pyridyl)sulfonyl]-6-(6-isopropoxy-3-pyridyl)-2-(2,2,4-trimethylpyrrolidin-1-yl)pyridine-3-carboxamide], for which the EC30 entry is given as “+++ (“+++” means <3 uM)”.

Regarding `CC(C)Oc1ccc(-c2ccc(C(=O)NS(=O)(=O)c3cccc(N)n3)c(N3CCCC(C(F)(F)F)C3)n2)cn1` (stereo not drawn) [Compound 1274, N-[(6-amino-2-pyridyl)sulfonyl]-6-(6-isopropoxy-3-pyridyl)-2-[3-(trifluoromethyl)-1-piperidyl]pyridine-3-carboxamide], the EC30 result is “+++ (“+++” means <3 uM)”. `C[C@@H]1CN(c2nc(-c3ccccc3)ccc2C(=O)NS(=O)(=O)N2CC[C@H](N)C2)C(C)(C)C1` [Compound 1725, N-[(3S)-3-aminopyrrolidin-1-yl]sulfonyl-6-phenyl-2-[(4S)-2,2,4-trimethylpyrrolidin-1-yl]pyridine-3-carboxamide]: the EC30 result was “++ (“++” means between 3 uM and 10 uM)”. Regarding `CC1CN(c2ncc(-c3cc(OC(C)C)cc(C(F)(F)F)c3)cc2C(=O)NS(=O)(=O)c2cccc(N)n2)C(C)(C)C1` (stereo not drawn) [Compound 1815, N-[(6-amino-2-pyridyl)sulfonyl]-5-[3-isopropoxy-5-(trifluoromethyl)phenyl]-2-(2,2,4-trimethylpyrrolidin-1-yl)pyridine-3-carboxamide], the EC30 result is reported as “+++ (“+++” means <3 uM)”.
